# According to patent US20240317722A1, “HETEROARYL-3-PIPERIDINEDIONE COMPOUND AND USE THEREOF” (Medshine Discovery Inc., priority 2021, published 2024):
# pIC50: −log10 of the molar value.
# How the values were obtained:
# [1] = test system: human triple-negative breast cancer MDA-MB-231 cells; assay: In vivo pharmacodynamic study, subcutaneous xenograft tumor Balb/c nude mouse model of MDA-MB-231 cells; set-up: species or system Balb/c nude mice; conditions: for Tumor volume (Day 0): Day 0 (grouping); for in vivo efficacy on the xenograft tumor model (in words): MDA-MB-231 xenograft, oral
# Procedure: Cell culture: Human triple-negative breast cancer MDA-MB-231 cells (ATCC-HTB-26) were cultured in monolayer in vitro. The culture conditions were RPMI-1640 medium with 10% fetal bovine serum in an incubator at 37° C. and 5% CO2. Conventional digestion with trypsin-EDTA was performed once every two days for passage. When the cell saturation was 80%-90% and the number met the requirement, the cells were collected, counted, and inoculated.
# Assay animals: Balb/c nude mice, female, 6 weeks old upon arrival, purchased from Shanghai Bikai Experimental Animal Co., Ltd.
# Cell inoculation: 0.2 mL (5×10^6 cells) of MDA-MB-231 cells (with matrigel, v/v 1:1) were subcutaneously inoculated into the right back of each mouse. The grouping for administration was started when the average tumor volume reached 110 mm^3. One dosing cycle was seven days, with administration once a day and an interval of 24 hours. The test compound was administered orally for a total of four cycles. The dosages of test compound WX005 were 10 mg/kg, 30 mg/kg and 100 mg/kg respectively, and the dosage of WX013 was 30 mg/kg respectively. Tumor diameter was measured twice a week with a vernier caliper. Tumor volume was calculated by the following formula: V=0.5a×b^2, where a and b are the long and short diameters of the tumor, respectively. The anti-tumor efficacy of compounds was evaluated by TGI (%) or relative tumor proliferation rate T/C (%). Relative tumor proliferation rate T/C (%)=TRTV/CRTV×100% (TRTV: average RTV of the treatment group; CRTV: average RTV of the negative control group). The relative tumor volume (RTV) was calculated based on the results of tumor measurement by the calculation formula: RTV=Vt/V0, where V0 is the tumor volume measured at grouping for administration (i.e., D0), and Vt is the tumor volume at a certain measurement, and TRTV and CRTV are taken on the same day.
# MDA-MB-231 = assay: Anti-proliferative effect in MDA-MB-231 (CellTiter-Glo); type: cell-based, human; conditions: MDA-MB-231, 3 days
# Procedure: This assay studied the inhibitory effect of the compounds on cell proliferation by detecting the effect of the test compounds on the in vitro activity of tumor cells MV4-11 and MDA-MB-231.
# The tumor cell lines were cultured in an incubator at 37° C., 5% CO2 or 0% CO2according to the above culture conditions. The cells were periodically passaged, and cells in logarithmic growth phase were taken for plating. • 2. Cell plating • (1). Cells were stained with trypan blue and viable cells were counted. • (2).
# • (3). 90 μL of cell suspension was added to each well of the culture plate, and culture medium without cells was added to the blank control well. • (4). The plate was incubated overnight in an incubator at 37° C., 5% CO2 or 0% CO2, and 100% relative humidity. • 3. Preparation of a compound storage plate
# Preparation of a 400× compound storage plate: The compounds were diluted with DMSO in a gradient from the highest concentration to the lowest concentration. The plates were prepared freshly at each time for use. • 4. Preparation of 10× compound working solution and treatment of cells with compounds • (1). Preparation of 10× compound working solution: compound or DMSO was added, and the well content was mixed to uniform by aspiration and expelling with pipette. 78 μL of cell culture medium was added to a 96-well plate with a V-shaped bottom. 2 μL of the compound from the 400× compound storage plate was added to the cell culture medium in the 96-well plate. 2 μL of DMSO was added to the vehicle control and the blank control. After adding compound or DMSO, the well content was mixed to uniform by aspiration and expelling with pipette. • (2). Dosing: 10 μL of 10× compound working solution was added to the cell culture plate. 10 μL of DMSO-cell culture mix solution was added to the vehicle control and blank control. • (3). The 96-well cell plate was placed back into the incubator and cultured for 3 days. • 5. CellTiter-Glo luminescence cell viability detection
# The following steps were performed according to the instruction of Promega CellTiter-Glo luminescence cell viability detection kit (Promega-G7573). • (1). The CellTiter-Glo buffer was thawed and allowed to stand to reach room temperature; • (2). CellTiter-Glo substrate was allowed to stand to reach room temperature; • (3). 10 mL of CellTiter-Glo buffer was added to CellTiter-Glo substrate in a bottle to dissolve the substrate to formulate CellTiter-Glo working solution; • (4). The working solution was vortexed slowly for fully dissolution; • (5). The cell culture plates were taken out and allowed to stand for 30 minutes to equilibrate to room temperature; • (6). 50 μL (equal to half the volume of cell culture solution in each well) of Cell Titer-Glo working solution was added into each well. The cell plate was wrapped with aluminum foil to protect the cell plate from light; • (7). The culture plates were shaken on an orbital shaker for 2 minutes to induce cell lysis; • (8). The culture plates were left at room temperature for 10 minutes to stabilize the luminescence signal; • (9). The luminous signal was detected on the 2104 En Vision plate reader. • 6. Data analysis
# The following formula was used to calculate the inhibition rate (IR) of the test compounds: IR (%)=(RLU of the vehicle control−RLU of the compound)/(RLU of the vehicle control−RLU of the blank control)*100%. The inhibition rates of the compounds at different concentrations were calculated in Excel, and then GraphPad Prism software was used to graph the inhibition curves and calculate the relevant parameters, including the minimum inhibition rate, maximum inhibition rate and IC50.
smiles,measurement,setting,value
COCCOc1cc(NC(=O)NCc2ccc3c(C4CCC(=O)NC4=O)noc3c2)cc(Cl)c1C (stereo not drawn) [WX013],Tumor volume (Day 0),[1]; 30 mg/kg orally once a day,108.69 mm^3
same,Relative tumor proliferation rate T/C (Day 27),[1]; 30 mg/kg orally once a day,0%
same,TGI (Day 27),[1]; 30 mg/kg orally once a day,114.97%
same,Tumor volume (Day 27),[1]; 30 mg/kg orally once a day,0 mm^3
same,in vivo efficacy on the xenograft tumor model (in words),[1],significant tumor shrinkage effect
COCCOc1cc(NC(=O)NCc2ccc3c(C4CCC(=O)NC4=O)coc3c2)cc(Cl)c1C (stereo not drawn) [WX005],Tumor volume (Day 0),[1]; 10 mg/kg orally once a day,108.29 mm^3
same,Relative tumor proliferation rate T/C (Day 27),[1]; 10 mg/kg orally once a day,0%
same,TGI (Day 27),[1]; 10 mg/kg orally once a day,114.91%
same,Tumor volume (Day 27),[1]; 10 mg/kg orally once a day,0 mm^3
same,in vivo efficacy on the xenograft tumor model (in words),[1],significant tumor shrinkage effect
same,pIC50,"MDA-MB-231; Homo sapiens, 72 h",8.33
same,Max. IR (maximum inhibition rate),MDA-MB-231,80.7%
